Molecular target: T1, casein kinase 1ε (Homo sapiens, UniProt P49674)
T1 construct: made in house
Assay: Casein Kinase Epsilon 33P-ATP Filter Plate Assay
Assay type: biochemical
Settings: not given
Excerpt: Casein Kinase Epsilon ^33P-ATP Filter Plate Assay for Screening CK1 Inhibitors Purpose: This assay measures the effect of compounds to inhibit the phosphorylation of the substrate casein by the enzyme casein kinase 1ε using an in vitro ^33P-ATP filtration assay.
Equipment: • Beckman Biomek 2000 Liquid Handling Robot • Beckman Multimek 96 Automated 96 Channel Pipettor • Millipore Vacuum Manifold Basic Kit # MAVM0960R • Titertek Multidrop Liquid Dispenser • Packard TopCount NXT Liquid Scintillation Counter
Enzyme: • Casein Kinase 1ε final concentration 0.58 mg/ml obtained from fermentation and purification processes performed by Aventis Pharmaceuticals Inc., France. The above are stored as 100 μL aliquots at minus 80° C.
Compounds: • Compounds for testing are supplied as frozen 10 mM compound stock dissolved in 100% DMSO. Assay Conditions:
Final total assay volume per well is equal to 50 μL made up as follows: • 5 μL of diluted compound stock ([…], 0.1, 0.01 or 0.001 μM), • 5 μL of dephosphorylated casein final concentration 0.2 μg/μL, • 20 μL of CK1ε final concentration 3 ng/μL, and • 20 μL of γ-^33P-ATP final concentration 0.02 μCi/μL mixed with cold ATP (10 μM final). Methodology: • 1. 500 mL of fresh assay buffer is made: 50 mM Tris pH 7.5, 10 mM MgCl2, 2 mM DTT and 1 mM EGTA • 2. Compounds to be evaluated are obtained as 10 μL of 10 mM stock dissolved in 100% DMSO. Using a Biomek 2000 liquid handling robot, serial dilutions are made to yield 10, 1, 0.1, 0.01 and 0.001 μM final compound dilutions added as 5 μL additions to Falcon U bottom plates. […] A routine screening assay will consist of 32 compounds, which equals 4 assay plates. • 3. Assay plate maps are set up according to the following pattern
• 4. […] Finally 20 μL […] (0.02 μCi/μL)/10 μM cold ATP are added (equals approximately 2×10^6 CPM per well). • 6. The Falcon U-Bottom assay plate containing the above 50 μL reaction volume is vortexed and then incubated at room temperature for 2 hours. • 7. At the end of 2 hours, the reaction is stopped by the addition of 65 μL of ice cold 2 mM cold ATP (made up in assay buffer) to the assay plates using a Beckman Multimek • 8. At the same time 25 μL 100% ice cold TCA made up in distilled H2O is added to a matching number of Millipore MAPH filter plates. • 9. Using a handheld 8-channel pipettor, 100 μL of the reaction mixture is transferred from the Falcon U-Bottom Plate to the Millipore MAPH filter plates presoaked with TCA. • 10. The Millipore MAPH filter plates are mixed gently and allowed to sit at room temperature for at least 30 minutes to precipitate the proteins. • 11. After 30 minutes the filter plates are placed on a Millipore vacuum manifold and filtered at no more than 8 mm Hg as the MAPH filters tend to “air lock” at higher vacuum settings. • 12. The filter plates are sequentially washed and filtered with 2×150 μL 20% TCA, 2×150 μL 10% TCA and 2×150 μL 5% TCA (total of 6 washes per plate/900 μL per well). • 13. Plates are allowed to dry overnight at room temperature. The next day 40 μL Packard Microscint-20 Scintillation Fluid is added per well using a Titertek Multidrop dispenser; the plates are sealed and counted for 2 minutes/well in a Packard Topcount NXT Scintillation Counter (CPM values/well are captured). Calculation: • 1. Counts Per Minute (CPM) data is captured and imported into a proprietary data calculation and archiving database (Activity Base by IDBS version 5.0). • 2. Column 1 for each plate reflects total phosphorylation activity of the enzyme in the absence of any inhibiting compound and thus represents 100%. Column 12 reflects any nonspecific phosphorylation/retained radioactivity activity in the absence of inhibiting compound and enzyme.

T1 sequence (P49674 whole entry): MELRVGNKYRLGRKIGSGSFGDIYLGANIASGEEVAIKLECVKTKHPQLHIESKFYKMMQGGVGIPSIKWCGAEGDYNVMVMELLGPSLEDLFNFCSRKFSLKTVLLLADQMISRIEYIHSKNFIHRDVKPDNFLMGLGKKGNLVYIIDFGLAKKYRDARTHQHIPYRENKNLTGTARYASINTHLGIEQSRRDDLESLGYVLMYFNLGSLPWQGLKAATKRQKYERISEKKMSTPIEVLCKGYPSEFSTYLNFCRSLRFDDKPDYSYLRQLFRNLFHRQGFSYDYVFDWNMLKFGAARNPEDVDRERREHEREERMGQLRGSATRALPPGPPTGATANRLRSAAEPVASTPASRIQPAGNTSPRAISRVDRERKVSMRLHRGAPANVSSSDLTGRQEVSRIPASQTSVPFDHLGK

Row | IC50 [µM] | SMILES
1 | > 10 | NC(=O)c1[nH]c2cccnc2c1Sc1cccc(Cl)c1Cl [Ia-9, 3-(2,3-Dichlorophenylsulfanyl)-1H-pyrrolo[3,2-b]pyridine-2-carboxylic acid amide]
2 | 0.709 | NC(=O)c1[nH]c2cccnc2c1Sc1cccc(C(F)(F)F)c1 [Ia-11, 3-(3-Trifluoromethyl-phenylsulfanyl)-1H-pyrrolo[3,2-b]pyridine-2-carboxylic acid, amide]
3 | > 10 | NC(=O)c1[nH]c2cccnc2c1Sc1cc(Cl)ccc1Cl [Ia-13, 3-(2,5-Dichloro-phenylsulfanyl)-1H-pyrrolo[3,2-b]pyridine-2-carboxylic acid amide]
4 | 0.669 | COc1ccccc1Sc1c(C(N)=O)[nH]c2cccnc12 [Ia-14, 3-(2-Methoxy-phenylsulfanyl)-1H-pyrrolo[3,2-b]pyridine-2-carboxylic acid amide]
5 | 0.424 | NC(=O)c1[nH]c2cccnc2c1Sc1cccc(N)c1 [Ia-16, 3-(3-Amino-phenylsulfanyl)-1H-pyrrolo[3,2-b]pyridine-2-carboxylic acid amide]
6 | 9.79 | NC(=O)c1[nH]c2cccnc2c1Sc1ccc([N+](=O)[O-])cc1 [Ia-17, 3-(4-Nitro-phenylsulfanyl)-1H-pyrrolo[3,2-b]pyridine-2-carboxylic acid amide]
7 | 0.14 | Cc1ccccc1Sc1c(C(N)=O)[nH]c2cccnc12 [Ia-19, 3-o-Tolylsulfanyl-1H-pyrrolo[3,2-b]pyridine-2-carboxylic acid amide]
8 | 6.88 | Cc1cc(C)cc(Sc2c(C(N)=O)[nH]c3cccnc23)c1 [Ia-21, 3-(3,5-Dimethyl-phenylsulfanyl)-1H-pyrrolo[3,2-b]pyridine-2-carboxylic acid amide]
9 | 6.48 | CCc1ccccc1Sc1c(C(N)=O)[nH]c2cccnc12 [Ia-23, 3-(2-Ethyl-phenylsulfanyl)-1H-pyrrolo[3,2-b]pyridine-2-carboxylic acid amide]
10 | 0.219 | NC(=O)c1[nH]c2cccnc2c1Sc1cccc(OC(F)(F)F)c1 [Ia-24, 3-(3-Trifluoromethoxy-phenylsulfanyl)-1H-pyrrolo[3,2-b]pyridine-2-carboxylic acid, amide]
11 | 0.19 | NC(=O)c1[nH]c2cccnc2c1Sc1ccccn1 [Ia-26, 3-(Pyridin-2-sulfanyl)-1H-pyrrolo[3,2-b]pyridine-2-carboxylic acid amide]
12 | 2.98 | NC(=O)c1[nH]c2cccnc2c1Sc1ccncc1 [Ia-27, 3-(Pyridin-4-sulfanyl)-1H-pyrrolo[3,2-b]pyridine-2-carboxylic acid amide]
13 | 0.053 | NC(=O)c1[nH]c2cccnc2c1Sc1cccs1 [Ia-28, 3-(Thiophen-2-ylsulfanyl)-1H-pyrrolo[3,2-b]pyridine-2-carboxylic acid amide]
14 | > 10 | CNC(=O)c1c(Sc2ccccc2)c2ncccc2n1C [Ia-29, 1-Methyl-3-phenylsulfanyl-1H-pyrrolo[3,2-b]pyridine-2-carboxylic acid methylamide]
15 | > 10 | CNC(=O)c1[nH]c2cccnc2c1Sc1cccc(OC(F)(F)F)c1 [Ia-30]
16 | > 10 | CNC(=O)c1[nH]c2cccnc2c1Sc1cccc(Cl)c1 [Ia-31]
17 | > 10 | CNC(=O)c1[nH]c2cccnc2c1Sc1ccccc1 [Ia-33, 3-Phenylsulfanyl-1H-pyrrolo[3,2-b]pyridine-2-carboxylic acid methylamide]

Row | IC50 [µM] | SMILES
18 | 0.339 | Cn1c(C(N)=O)c(Sc2ccccc2)c2ncccc21 [Ia-34, 1-Methyl-3-phenylsulfanyl-1H-pyrrolo[3,2-b]pyridine-2-carboxylic acid amide]
19 | 0.896 | COc1ccc2[nH]c(C(N)=O)c(Sc3cccc(F)c3)c2n1 [Ia-35, 3-(3-Fluoro-phenylsulfanyl)-5-methoxy-1H-pyrrolo[3,2-b]pyridine-2-carboxylic acid amide]
20 | 0.086 | COc1cccc(Sc2c(C(N)=O)[nH]c3ccc(OC)nc23)c1 [Ia-36, 3-(3-Methoxy-phenylsulfanyl)-5-methoxy-1H-pyrrolo[3,2-b]pyridine-2-carboxylic acid amide]
21 | 0.123 | CCCn1c(C(N)=O)c(Sc2ccccc2)c2ncccc21 [Ia-37, 3-Phenylsulfanyl-1-propyl-1H-pyrrolo[3,2-b]pyridine-2-carboxylic acid amide]
22 | 1.13 | NC(=O)c1[nH]c2ccncc2c1Sc1ccccc1 [Ib-1, 3-Phenylsulfanyl-1H-pyrrolo[3,2-c]pyridine-2-carboxylic acid amide]
23 | 0.466 | NC(=O)c1[nH]c2ccncc2c1Sc1cccc(F)c1 [Ib-2]
24 | 7.96 | NC(=O)c1[nH]c2ccncc2c1Sc1ccc(Cl)cc1 [Ib-3]
25 | 0.388 | NC(=O)c1[nH]c2cnccc2c1Sc1ccccc1 [Ic-1, 3-Phenylsulfanyl-1H-pyrrolo[2,3-c]pyridine-2-carboxylic acid amide]
26 | > 10 | NC(=O)c1[nH]c2cnccc2c1S(=O)(=O)c1ccccc1 [Ic-2, 3-Benzenesulfonyl-1H-pyrrolo[2,3-c]pyridine-2-carboxylic acid amide]
27 | 1.84 | NC(=O)c1[nH]c2cnccc2c1Sc1cccc(F)c1 [Ic-3, 3-(3-Fluoro-phenylsulfanyl)-1H-pyrrolo[2,3-c]pyridine-2-carboxylic acid amide]
28 | 0.397 | COc1cccc(Sc2c(C(N)=O)[nH]c3cnccc23)c1 [Ic-4, 3-(3-Methoxy-phenylsulfanyl)-1H-pyrrolo[2,3-c]pyridine-2-carboxylic acid amide]
29 | 0.375 | NC(=O)c1[nH]c2cnccc2c1Sc1cccc(Cl)c1 [Ic-5, 3-(3-Chloro-phenylsulfanyl)-1H-pyrrolo[2,3-c]pyridine-2-carboxylic acid amide]
30 | 0.759 | NC(=O)c1[nH]c2cnccc2c1Sc1ccccc1C(F)(F)F [Ic-6, 3-(2-Trifluoromethyl-phenylsulfanyl)-1H-pyrrolo[2,3-c]pyridine-2-carboxylic acid amide]
31 | 1.29 | NC(=O)c1[nH]c2cnccc2c1Sc1ccccc1OC(F)(F)F [Ic-7, 3-(2-Trifluoromethoxy-phenylsulfanyl)-1H-pyrrolo[2,3-c]pyridine-2-carboxylic acid amide]
32 | 0.442 | COc1ccccc1Sc1c(C(N)=O)[nH]c2cnccc12 [Ic-8, 3-(2-Methoxy-phenylsulfanyl)-1H-pyrrolo[2,3-c]pyridine-2-carboxylic acid amide]
33 | 0.291 | NC(=O)c1[nH]c2cnccc2c1Sc1ccccn1 [Ic-9, 3-(Pyridin-2-sulfanyl)-1H-pyrrolo[2,3-c]pyridine-2-carboxylic acid amide]

Same assay, conditions: phosphorylation of casein, 10 μM cold ATP, 2 hours room temperature; * denotes average of 2 or more determinations; read-out: Casein Kinase Iε 33P-ATP Filter Plate Assay IC50

Row | SMILES | IC50 [µM]
34 | CNC(=O)c1[nH]c2cccnc2c1Sc1cccc(F)c1 [Ia-32] | > 10
